In patent US20190380985A1, “Composition Containing N-acetyldiaminobutyric Acid” (bitop AG, priority 2016, published 2019):

What was measured:
SIRC cell line = experiment: Matsuo moisturizing assay (calcein AM viability after air-drying); type: cell-based, rabbit; conditions: 25 mM; 15 min treatment, 45 min air-drying; FIG. 1
Description: The skin/mucosal moisturizing effect of N-acetyldiaminobutyric acid was investigated using a Matsuo moisturizing assay (Matsuo, Br J. Opthalmol. 85: 610-612). An SIRC cell line isolated from rabbit eyes was used for this purpose. For the experiments, 30,000 cells were placed in each well of a 96 well microtiter plate. After approx. 24 h a complete monolayer had formed in each case. The supernatant was then removed and 100 μl of the test substances diluted in PBS (phosphate buffered salt solution) were applied to the cells for 15 min. Then, the supernatant was removed again. At this stage, the cells were not washed with PBS. Under sterile conditions the cells were air-dried over a period of 45 min. Following this, the cells were washed three times with PBS. To determine cell viability calcein AM staining (calcein-acetoxymethyl ester) was used. Calcein is a fluorescent dye. After the transport of calcein AM into the living cell, the ester groups were cleaved by esterases of the cell resulting in the formation of calcein causing a strongly green fluorescent complex to be formed with calcium ions present in the cell. […] In turn, a high cell viability attests to good wetting properties of the test substances.
The result is shown in FIG. 1 in comparison to the effect of ectoine and hyaluronic acid. […]

HaCaT cells [1] = experiment: UV protection test via TEER assay; type: cell-based, human; conditions: 100 mM, overnight preincubation, 45 min UV-B, 24 h later; FIG. 2
Text: A characteristic feature of epithelial as well as endothelial cell layers is the formation of intercellular connections leading to a dense cell barrier separating the basolateral (abluminal) side from the apical (luminal) side. The cell layers form selectively permeable interfaces between different compartments, in this way controlling the diffusion in intercellular space as well as intracellular transport processes. This is ensured by tight junctions (paracellular barriers in the intercellular space). The integrity of these barriers is determined by the so-called TEER method (transepithelial/transendothelial electrical resistance). A defined DC voltage is applied to two electrodes on both sides of the cell layer. The flowing current is measured, which yields the respective resistance results according to Ohm's law.
HaCaT cells were used, a human keratinocyte cell line. These were applied to PET membranes (“ThinCerts®”). It was waited until the cells had formed a complete and intact monolayer. […]
In order to accomplish a closer investigation of the protective effect of membranes stabilized by N-acetyldiaminobutyric acid against UV radiation, keratinocytes were incubated overnight in a cell culture medium with PBS, NADA (50 mM and 100 mM) and other compounds. […] The cells were incubated for another 24 hours and the TEER values were determined. […]

Phenion skin model = experiment: UV protection test using LDH assay on full thickness skin model; type: cell-based; conditions: 4 h incubation, compared with PBS, FIG. 3
Description: In order to further evaluate the UV, protection effect of NADA, a full thickness skin model of Henkel (Phenion skin, model) was used. This is based on a bovine collagen structure, which is morphologically equivalent to human skin and thus allows examinations to be easily carried out. The Phenion skin model was incubated with the test substances for 4 hours. These were applied directly to the top surface. Subsequently, the Phenion skin model was exposed to UV-B radiation for 2 hours. […] The skin model was then incubated for another 24 hours and the LDH (lactate dehydrogenase) value was determined, which is a measure of the degree of damage caused to the cells.

HaCaT cells [2] = experiment: IR protection test using LDH assay; type: cell-based, human; conditions: 5 h preincubation, 44° C. for 30 min, 60 h at 37° C., FIG. 4; for liberation of LDH (protection against heat/IR): compared to untreated cells
Text: Infrared (IR) radiation brings about an increase in skin temperature, which is associated with an increase in the number of free radicals and increased expression of heat shock inducing metalloproteases (MMP). A permanent exposure to IR radiation may result in an increase in cell death rate through apoptosis. In order to determine the potential of NADA and, for comparative purposes, ectoine on eukaryotic cells regarding the protection against heat and IR radiation, HaCaT cells (human keratinocyte cell line) were applied to 96 wells of a microtiter plate. After a uniform cell layer had formed, the test substances were applied to the medium and the cells were incubated for 5 hours at a temperature of 37° C. Following preincubation, the cells were exposed to a temperature of 44° C. for 30 min. The cells were then incubated at 37° C. for a further 60 hours.

TR146 cell line = experiment: Membrane stabilization, calcein AM assay, TR146; type: cell-based, human; conditions: different concentrations, compared to PBS only; FIG. 5
Description: This is a buccal human cell line of oral mucosa cells. The cells were placed in a microtiter plate having 96 wells. As soon as confluence was reached, the cells were washed with PBS and provided with different concentrations of N-acetyldiaminobutyric acid. The negative control contained only PBS, the positive control cDPG (cyclic 2,3-diphosphoglycerate). Following incubation, the cells were again washed with PBS and incubated with 5 μM of calcein AM for a period of 45 min. The hydrolysis of calcein AM, which itself is non-fluorescent, by intracellular esterases produces calcein, a hydrophilic, highly fluorescent compound that is retained in the cytoplasm of the cells. Accordingly, high fluorescence is indicative of high cell viability.

LLC-PK1 cell line = experiment: Membrane stabilization, calcein AM assay, LLC-PK1; type: cell-based; conditions: LLC-PK1 cells; FIG. 6
HaCaT cells [3] = experiment: ATP assay on aged keratinocytes (cell metabolism); type: cell-based, human; conditions: 5 h incubation in PBS, compared to PBS only (0%), FIG. 7
Text: HaCaT cells (a keratinocyte cell line) were placed on a 96-well microtiter plate and a cell culture was allowed to form for a period of at least one week until cell growth was stopped by contact inhibition. Following this, the cells were cultivated for another week to simulate the ageing process. The cell culture medium was changed over to PBS with the addition of NADA and reference substances such as glucosylglycerol, ectoine (28Extremoin) and Myramaze®, a commercially available anti-aging product. The cells were incubated for a period of 5 hours. Finally, an ATP assay was prepared, whereby a high ATP synthesis indicates a high degree of metabolism and thus attests to cell vitality. The results can be seen from FIG. 7.

claudin-1 = experiment: Claudin-1 specific ELISA after heat stress (tight junctions); type: cell-based, human; conditions: 6 h pretreatment 10-175 mM, 44° C. 30 min, FIG. 8
Text: The examination focused on the upregulation of claudins, membrane proteins as constituents of tights junctions, which close off the gaps between the cells of the epithelium so that a barrier is formed. This barrier controls the penetration of molecules via the epithelium. Specifically, the pore occluding claudin-1 was examined. An increased expression of claudin-1 leads to higher imperviousness of the epithelial membrane and increased transepithelial electrical resistance (TEER). The permeability is thus reduced.
The epithelial cell line (HaCaT) used for the experiment was cultivated in wells on a microtiter plate until a closed cell monolayer had developed. Subsequently, the cells were pretreated with NADA for 6 hours in the cell culture medium (10, 25, 50, 75, 100 and 175 mM). The cells were then suddenly exposed to a temperature of 44° C. for a period of 30 min. before being kept at 37° C. for another 24 and 48 hours respectively. The cells were harvested and the lysate was analyzed using a claudin-1 specific ELISA (enzyme-linked immunosorbent assay). The results can be seen from FIG. 8.

Row | Compound | viability of the cells and thus the humidification after drying of the cells (SIRC cell line) | change of the TEER value after UV-B radiation (HaCaT cells [1]) | LDH value after UV exposure (UV protection) (Phenion skin model; 2 h UV-B, 24 h later) | LDH value before UV exposure (Phenion skin model; before UV-B) | protection against IR radiation relative to ectoine (HaCaT cells [2]) | liberation of LDH (protection against heat/IR) (HaCaT cells [2]) | calcein fluorescence (stabilization of epithelial cells) (TR146 cell line) | calcein fluorescence (membrane stabilizing effect) (LLC-PK1 cell line) | ATP activity (cell metabolism) (HaCaT cells [3]) | expression of claudin-1 (claudin-1; then 24 hours at 37° C.) | expression of claudin-1 (claudin-1; then 48 hours at 37° C.)
1 | CC(=O)NCCC(N)C(=O)O (stereo not drawn) [NADA, N-acetyldiaminobutyric acid] | comparable results to ectoine | significant protection of the cell membrane | shows UV protection properties | approximately the same for PBS and NADA | more effective than ectoine | offer protection against intense IR radiation | significant, concentration-dependent stabilization of the epithelial cells | membrane stabilizing effect | reactivation of aged keratinocytes | distinct increase in the expression of claudin-1 | distinct increase in the expression of claudin-1
2 | CC1=NC(C(=O)O)CCN1 (stereo not drawn) [ectoine, 2-methyl-1,4,5,6-tetrahydropyrimidine-4-carboxylic acid, reference compound] | – | – | – | – | – | offer protection against intense IR radiation | – | – | – | – | –
